Assay results from ChEMBL document CHEMBL5727915, “Substituted [5,6]cyclic-4(3H)-pyrimidinones as anticancer agents” (2020).
pIC50: −log10 of the molar value.

Target: CDC7/DBF4 (Cell division cycle 7-related protein kinase/Activator of S phase kinase) (Homo sapiens, UniProt O00311)
Assay: Biochemical Assay: Biochemical assay was tested in the U-shaped bottom 384 plate (corning, #4514) with a final volume of […] at 27° C. The concentration of CDC7 was optimized by the enzyme titration experiment. CDC7 kinase was diluted in assay buffer (40 mM Tris.HCl pH 7.25, 100 ug/mL BSA, and 20 mM MgCl2) to get 2.4× enzyme solutions. Compounds were dissolved in 10 mM DMSO, and series diluted in DMSO from 0.3 mM to 0.3 nM (5 concentration pts); All dilutions were diluted 30× in assay buffer to get 6× compounds solutions. MCM2 Substrate and ATP were diluted to 2.4× mixed solution. Add 2 ul test compound solution to 384 assay plate, then add 5 ul substrate/ATP mixed solution, at last add 5 ul enzyme solution, incubate at 27° C. for 180 mins. Transfer 5 ul reaction solution to another 384 assay plate, then add 5 ul ADP-Glo™ Reagent (Promega) to each well and incubate at 27° C. for 40 mins; Add 10 ul Kinase Detection Reagent (Promega) to each well and incubate at 27° C. for 30 mins. 10 uM CDC7-3 compound was used as 100% inhibition while 100% DMSO control was used as 0% inhibition. Each test has three replications at least.
Type: protein-complex assay

Sequence of CDC7/DBF4 (Cell division cycle 7-related protein kinase/Activator of S phase kinase) (Q9UBU7 whole entry): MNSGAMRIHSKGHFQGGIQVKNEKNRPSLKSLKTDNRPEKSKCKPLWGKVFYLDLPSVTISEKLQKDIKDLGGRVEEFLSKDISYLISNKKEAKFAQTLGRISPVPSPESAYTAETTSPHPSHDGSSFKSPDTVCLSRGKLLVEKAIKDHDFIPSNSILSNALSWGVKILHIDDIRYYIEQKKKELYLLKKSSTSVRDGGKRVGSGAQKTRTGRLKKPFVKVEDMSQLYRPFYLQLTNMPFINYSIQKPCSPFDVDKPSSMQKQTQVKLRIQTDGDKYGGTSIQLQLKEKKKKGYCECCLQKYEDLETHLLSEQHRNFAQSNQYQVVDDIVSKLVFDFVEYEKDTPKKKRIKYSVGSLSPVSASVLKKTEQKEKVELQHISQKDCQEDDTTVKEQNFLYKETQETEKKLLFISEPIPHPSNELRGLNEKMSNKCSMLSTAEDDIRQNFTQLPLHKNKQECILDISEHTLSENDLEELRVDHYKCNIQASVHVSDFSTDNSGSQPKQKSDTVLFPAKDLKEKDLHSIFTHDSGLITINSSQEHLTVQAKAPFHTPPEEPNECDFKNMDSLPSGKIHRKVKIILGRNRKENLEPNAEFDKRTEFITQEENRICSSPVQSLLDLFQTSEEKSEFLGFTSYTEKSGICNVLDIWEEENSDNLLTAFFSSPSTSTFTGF
Sequence of CDC7/DBF4 (Cell division cycle 7-related protein kinase/Activator of S phase kinase) (O00311 whole entry): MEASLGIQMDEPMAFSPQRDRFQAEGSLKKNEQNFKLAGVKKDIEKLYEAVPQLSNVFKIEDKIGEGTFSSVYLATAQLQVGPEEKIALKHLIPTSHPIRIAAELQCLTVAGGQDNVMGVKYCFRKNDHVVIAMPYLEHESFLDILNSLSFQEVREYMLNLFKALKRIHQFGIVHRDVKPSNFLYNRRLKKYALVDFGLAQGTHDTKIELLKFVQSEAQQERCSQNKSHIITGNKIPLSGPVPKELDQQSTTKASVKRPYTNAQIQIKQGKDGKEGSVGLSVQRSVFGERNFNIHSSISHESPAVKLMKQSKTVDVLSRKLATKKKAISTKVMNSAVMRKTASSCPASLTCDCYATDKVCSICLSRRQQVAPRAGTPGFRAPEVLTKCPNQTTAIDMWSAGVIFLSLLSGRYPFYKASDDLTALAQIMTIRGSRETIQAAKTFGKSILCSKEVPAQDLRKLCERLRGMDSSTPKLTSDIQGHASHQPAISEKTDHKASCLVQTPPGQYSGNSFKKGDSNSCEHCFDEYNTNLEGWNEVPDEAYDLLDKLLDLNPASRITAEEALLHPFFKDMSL

| SMILES | pIC50 |
| --- | --- |
| CC[C@H](N)c1nc2cc(-c3ccnc(F)c3)sc2c(=O)[nH]1 | > 6.00 |
| CN[C@H](c1nc2cc(-c3ccnc(F)c3)sc2c(=O)[nH]1)C(C)C | > 5.00 |
| CC(C)[C@H](N)c1nc2cc(-c3ccnc(Cl)c3)sc2c(=O)[nH]1 | > 6.00 |
| Cc1cc(-c2cc3nc([C@@H](N)C(C)C)[nH]c(=O)c3s2)ccn1 | > 6.00 |
